Source: patent US8809333B2, “Imidazole, pyrazole, and triazole derivatives useful as antibacterial agents” (Pfizer Inc., priority 2011, dated 2014)
Converted amounts (≈) assume the structure as drawn. Read-outs that look alike come from different tables or passages of the source.

How the values were obtained:
[1] = system: Klebsiella pneumoniae: Ciprofloxacin-resistant isolate, expresses ESBL, clinical isolate (KP-3700); assay: MIC determination (CLSI), KP-3700; format: cell-based; details: overnight incubation, lower of duplicate values
Procedure: (§1) The in vitro antibacterial activity of compounds described in the Examples was evaluated by minimum inhibitory concentration (MIC) testing according to Clinical and Laboratory Standards Institute (CLSI) Guidelines. See: Clinical and Laboratory Standards Institute. Methods for Dilution Antimicrobial Susceptibility Tests for Bacteria that Grow Aerobically; Approved Standard-Eighth Edition. CLSI document M7-A8 [ISBN 1-56238-689-1]. Clinical and Laboratory Standards Institute, 940 West Valley Road, Suite 1400, Wayne, Pa. 19087-1898 USA, 2006; also Clinical and Laboratory Standards Institute. Performance Standards for Antimicrobial Susceptibility Testing; Twentieth Informational Supplement. CLSI document M100-S20 [ISBN1-56238-716-2]. Clinical and Laboratory Standards Institute.
(§2) The MIC determination is a standard laboratory method for evaluating the antibacterial activity of a compound. The MIC represents the lowest drug concentration that inhibits visible growth of bacteria following overnight incubation. […] Typically, the drug concentration range is broken down into 2-fold increments (e.g. 0.06 μg/mL, 0.12 μg/mL. 0.25 μg/mL, 0.50 μg/mL, 1.0 μg/mL, etc.) and the various drug concentrations are all individually incubated overnight with approximately the same number of bacteria. The MIC is then determined by visually inspecting the drug effect at each concentration, and identifying the lowest drug concentration that has inhibited bacterial growth as compared to the drug free control. Typically, bacteria continue to grow at drug concentrations lower than the MIC and don't grow at concentrations at and above the MIC.
(§3) The MIC values described in Tables 2 and 3 below were derived from assays wherein each test compound was evaluated in duplicate. In cases where the duplicate values varied by 0-2-fold, the lower of the two values was reported below. Generally speaking, if the duplicate values varied by more than 2-fold, the assay was considered non-valid and was repeated until the variation between duplicate runs was ≦2-fold. In line with the CLSI guidelines referred to above, both control organisms and reference compounds were utilized in each MIC assay to provide proper quality control. MIC values generated with these control organisms and reference compounds were required to fall within a defined range for the assay to be considered valid and be included herein. Those skilled in the art will recognize that MIC values can and do vary from experiment to experiment. Generally speaking, it should be recognized that MIC values often vary +/−2-fold from experiment to experiment. While a single MIC is reported for each compound and each microorganism, the reader should not conclude that each compound was only tested once. Several of the compounds were subjected to multiple tests. The data reported in Tables 2 and 3 is reflective of the compounds relative activity and different MICs may have been generated on these occasions in line with the guidelines described above.
(§4) The following bacterial strains were used in these MIC determinations:
(3) Klebsiella pneumoniae: Ciprofloxacin-resistant isolate, expresses extended-spectrum beta-lactamases (ESBL), clinical isolate, labeled as KP-3700 in Table 5.

[2] = system: Escherichia coli EC-1: VOGEL, mouse virulent; assay: MIC determination (CLSI), EC-1; format: cell-based; details: Escherichia coli, read-out: EC-1 (MIC)
Procedure: as §1, §2, §3, §4
(2) Escherichia coli EC-1: VOGEL, mouse virulent labeled as EC-1 in Table 5;

[3] = biological target: T1, Pseudomonas aeruginosa LpxC enzyme (Pseudomonas aeruginosa, UniProt P47205); assay: IC50 assay, LpxC enzyme from P. aeruginosa (BioTrove RapidFire mass spectrometry); format: biochemical
T1 construct: made in house; host or cells: E. coli
T1 sequence (P47205 1-303): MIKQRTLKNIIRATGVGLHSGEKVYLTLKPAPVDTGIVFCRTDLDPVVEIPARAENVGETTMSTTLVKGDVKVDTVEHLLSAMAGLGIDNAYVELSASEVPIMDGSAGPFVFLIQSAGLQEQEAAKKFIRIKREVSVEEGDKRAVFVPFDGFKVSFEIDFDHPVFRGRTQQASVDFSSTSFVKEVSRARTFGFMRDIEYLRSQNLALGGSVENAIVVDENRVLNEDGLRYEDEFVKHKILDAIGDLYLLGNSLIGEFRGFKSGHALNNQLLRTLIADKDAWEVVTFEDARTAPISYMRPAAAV
Procedure: In order to assess the compounds biological activity, selected in-vitro assays were conducted on selected compounds of Formula I. One of the assays measured the compounds ability to disrupt the synthesis of lipopolysaccharide, LPS, which is a component of the outer membrane of Gram-negative bacteria. Disruption of this synthesis is lethal to the bacteria. The assay determined the compound's ability to inhibit LpxC, which is the first enzyme in the biosynthetic pathway for LPS (measured as IC50). Additionally, MICs (minimal inhibitory concentrations) were determined for several bacteria. The specific protocols are described below:
A) IC50 Assay, LpxC Enzyme from P. Aeruginosa Labeled as PA LpxC Enzyme IC50):
At the end of 1 hour, 5 ul of 1 N HCl was added to stop the enzyme reaction, the plates were centrifuged, and then processed with the BioTrove Rapidfire HTMS Mass Spectrometry System. A no-enzyme control was used in calculating the IC50 values from the percent conversion values.

[4] = system: Acinetobacter baumannii/haemolyticus: Multidrug-resistant clinical isolate (AB-3167); assay: MIC determination (CLSI), AB-3167; format: cell-based; details: read-out: AB-3167 (MIC)
Procedure: as §1, §2, §3, §4
(1) Acinetobacter baumannii/haemolyticus: Multidrug-resistant clinical isolate labeled as AB-3167 in Table 5;

[5] = system: Pseudomonas aeruginosa UI-18: Wild-type (PA-7); assay: MIC determination (CLSI), PA-7; format: cell-based; details: read-out: PA-7 (MIC)
Procedure: as §1, §2, §3, §4
(4) Pseudomonas aeruginosa UI-18: Wild-type, labeled as PA-7 in Table 5;

[6] = Acinetobacter baumannii/haemolyticus multidrug-resistant clinical isolate, overnight incubation, lower of duplicate values
[7] = Pseudomonas aeruginosa UI-18 wild-type, overnight incubation, lower of duplicate values
[8] = P. aeruginosa LpxC enzyme 0.1 nM, 25° C., 1 hour, pH 8.0, read-out: PA: IC50

For `COc1ccc(-c2cn(CC[C@](C)(C(=O)NO)S(C)(=O)=O)nn2)c(Cl)c1` [Example 16, (2R)-4-[4-(2-chloro-4-methoxyphenyl)-1H-1,2,3-triazol-1-yl]-N-hydroxy-2-methyl-2-(methylsulfonyl)butanamide], the “KP-3700 (MIC)” value [1] was 32 µg/mL, the MIC [2] was 8 µg/mL (≈ 19.9 µM) and the IC50 [3] was 4.71 nM. For the same molecule, the MIC [4, 6] was over 64 µg/mL and the MIC [5, 7] was 8 µg/mL (≈ 19.9 µM).
With `C[C@@](CCn1cc(-c2cccc(F)c2F)nn1)(C(=O)NO)S(C)(=O)=O` [Example 17, (2R)-4-[4-(2,3-difluorophenyl)-1H-1,2,3-triazol-1-yl]-N-hydroxy-2-methyl-2-(methylsulfonyl)butanamide] the “KP-3700 (MIC)” value [1] was 64 µg/mL, the MIC [2] was 32 µg/mL (≈ 85.5 µM) and the IC50 [3] was 8.08 nM. The MIC [4, 6] was over 64 µg/mL and the MIC [5, 7] was 4 µg/mL (≈ 10.7 µM).
With `C[C@@](CCn1cc(-c2cccc(Cl)c2Cl)nn1)(C(=O)NO)S(C)(=O)=O` [Example 19, (2R)-4-[4-(2,3-dichlorophenyl)-1H-1,2,3-triazol-1-yl]-N-hydroxy-2-methyl-2-(methylsulfonyl)butanamide] the “KP-3700 (MIC)” value [1] was 16 µg/mL, the MIC [2] was 8 µg/mL (≈ 19.6 µM) and the IC50 [3] was 1.95 nM. For the same molecule, the MIC ([4]; Acinetobacter baumannii) was over 64 µg/mL and the MIC ([5]; Pseudomonas aeruginosa) was 4 µg/mL (≈ 9.82 µM).
`C[C@@](CCn1cc(-c2ccc(F)c(F)c2)nn1)(C(=O)NO)S(C)(=O)=O` [Example 20, (2R)-4-[4-(3,4-difluorophenyl)-1H-1,2,3-triazol-1-yl]-N-hydroxy-2-methyl-2-(methylsulfonyl)butanamide] was tested, and the “KP-3700 (MIC)” value [1] was over 64.0 µg/mL, the MIC [2] was 32 µg/mL (≈ 85.5 µM) and the IC50 [3] was 1.87 nM. It also gave an MIC [4, 6] of over 64 µg/mL and an MIC [5, 7] of 4 µg/mL (≈ 10.7 µM).
For `C[C@@](CCn1cc(-c2ccc(Cl)c(Cl)c2)nn1)(C(=O)NO)S(C)(=O)=O` [Example 21, (2R)-4-[4-(3,4-dichlorophenyl)-1H-1,2,3-triazol-1-yl]-N-hydroxy-2-methyl-2-(methylsulfonyl)butanamide], the “KP-3700 (MIC)” value [1] was 32 µg/mL, the MIC [2] was 16 µg/mL (≈ 39.3 µM) and the IC50 [3] was 1.67 nM. For the same molecule, the MIC ([4]; Acinetobacter baumannii) was over 64 µg/mL and the MIC ([5]; Pseudomonas aeruginosa) was 2 µg/mL (≈ 4.91 µM).
For `C[C@@](CCn1cc(-c2ccc(Cl)c(F)c2)nn1)(C(=O)NO)S(C)(=O)=O` [Example 23, (2R)-4-[4-(4-chloro-3-fluorophenyl)-1H-1,2,3-triazol-1-yl]-N-hydroxy-2-methyl-2-(methylsulfonyl)butanamide], the “KP-3700 (MIC)” value [1] was 64 µg/mL, the MIC [2] was 8 µg/mL (≈ 20.5 µM) and the IC50 [3] was 0.912 nM. The MIC [4, 6] was over 64 µg/mL and the MIC [5, 7] was 2 µg/mL (≈ 5.12 µM).
With `C[C@@](CCn1cc(-c2ccc(Cl)cc2F)nn1)(C(=O)NO)S(C)(=O)=O` [Example 24, (2R)-4-[4-(4-chloro-2-fluorophenyl)-1H-1,2,3-triazol-1-yl]-N-hydroxy-2-methyl-2-(methylsulfonyl)butanamide] the “KP-3700 (MIC)” value [1] was 4 µg/mL, the MIC [2] was 2 µg/mL (≈ 5.12 µM) and the IC50 [3] was 0.657 nM. It also gave an MIC [4, 6] of over 64 µg/mL and an MIC [5, 7] of 1 µg/mL (≈ 2.56 µM).
For `CC(CCn1cc(-c2ccc(Cl)cc2)nn1)(C(=O)NO)S(C)(=O)=O` (centres unmarked) [Example 26, 4-[4-(4-chlorophenyl)-1H-1,2,3-triazol-1-yl]-N-hydroxy-2-methyl-2-(methylsulfonyl)butanamide], the “KP-3700 (MIC)” value [1] was 32 µg/mL, the MIC [2] was 32 µg/mL (≈ 85.8 µM) and the IC50 [3, 8] was 2.87 nM. For the same molecule, the MIC [4, 6] was over 64 µg/mL and the MIC [5, 7] was 4 µg/mL (≈ 10.7 µM).
With `CC(CCn1cc(CSc2cccc(Cl)c2)nn1)(C(=O)NO)S(C)(=O)=O` (centres unmarked) [Example 27, 4-(4-{[(3-chlorophenyl)sulfanyl]methyl}-1H-1,2,3-triazol-1-yl)-N-hydroxy-2-methyl-2-(methylsulfonyl)butanamide] the “KP-3700 (MIC)” value [1] was over 64.0 µg/mL, the MIC [2] was over 64 µg/mL and the IC50 [3, 8] was 12.2 nM. It also gave an MIC [4, 6] of over 64 µg/mL and an MIC [5, 7] of 64 µg/mL (≈ 153 µM).
In the case of `CC(C)(C)c1ccccc1SCc1cn(CCC(C)(C(=O)NO)S(C)(=O)=O)nn1` (centres unmarked) [Example 28, 4-(4-{[(2-t-butylphenyl)sulfanyl]methyl}-1H-1,2,3-triazol-1-yl)-N-hydroxy-2-methyl-2-(methylsulfonyl)butanamide], the “KP-3700 (MIC)” value [1] is reported as over 64.0 µg/mL, the MIC [2] is reported as over 64 µg/mL and the IC50 [3, 8] is reported as 174 nM. It also gave an MIC [4, 6] of over 64 µg/mL and an MIC [5, 7] of over 64 µg/mL.
`CC(CCn1cc(CSc2ccc(Cl)cc2)nn1)(C(=O)NO)S(C)(=O)=O` (centres unmarked) [Example 29, 4-(4-{[(4-chlorophenyl)sulfanyl]methyl}-1H-1,2,3-triazol-1-yl)-N-hydroxy-2-methyl-2-(methylsulfonyl)butanamide] was tested, and the “KP-3700 (MIC)” value [1] was over 64.0 µg/mL, the MIC [2] was over 64 µg/mL and the IC50 [3, 8] was 8.82 nM. For the same molecule, the MIC [4, 6] was over 64 µg/mL and the MIC [5, 7] was 32 µg/mL (≈ 76.4 µM).
For `CC(CCn1cc(COc2ccc3ccccc3c2)nn1)(C(=O)NO)S(C)(=O)=O` (centres unmarked) [Example 30, N-hydroxy-2-methyl-2-(methylsulfonyl)-4-{4-[(naphthalen-2-yloxy)methyl]-1H-1,2,3-triazol-1-yl}butanamide], the “KP-3700 (MIC)” value [1] was over 64.0 µg/mL, the MIC [2] was over 64 µg/mL and the IC50 [3, 8] was 3.76 nM. For the same molecule, the MIC [4, 6] was over 64 µg/mL and the MIC [5, 7] was 32 µg/mL (≈ 76.5 µM).
`CC(C)c1ccccc1SCc1cn(CCC(C)(C(=O)NO)S(C)(=O)=O)nn1` (centres unmarked) [Example 31, N-hydroxy-2-methyl-2-(methylsulfonyl)-4-[4-({[2-(propan-2-yl)phenyl]sulfanyl}methyl)-1H-1,2,3-triazol-1-yl]butanamide] was tested, and the “KP-3700 (MIC)” value [1] was over 64.0 µg/mL, the MIC [2] was over 64 µg/mL and the IC50 [3, 8] was 303 nM. For the same molecule, the MIC [4, 6] was over 64 µg/mL and the MIC [5, 7] was over 64 µg/mL.
For `CCc1ccccc1SCc1cn(CCC(C)(C(=O)NO)S(C)(=O)=O)nn1` (centres unmarked) [Example 32, 4-(4-{[(2-ethylphenyl)sulfanyl]methyl}-1H-1,2,3-triazol-1-yl)-N-hydroxy-2-methyl-2-(methylsulfonyl)butanamide], the “KP-3700 (MIC)” value [1] was over 64.0 µg/mL, the MIC [2] was over 64 µg/mL and the IC50 [3, 8] was 50.9 nM. The MIC [4, 6] was over 64 µg/mL and the MIC [5, 7] was over 64 µg/mL.
In the case of `CC(CCn1cc(COc2ccc(C(F)(F)F)cc2)nn1)(C(=O)NO)S(C)(=O)=O` (centres unmarked) [Example 33, N-hydroxy-2-methyl-2-(methylsulfonyl)-4-(4-{[4-(trifluoromethyl)phenoxy]methyl}-1H-1,2,3-triazol-1-yl)butanamide], the “KP-3700 (MIC)” value [1] is reported as over 64.0 µg/mL, the MIC [2] is reported as 64 µg/mL (≈ 147 µM) and the IC50 [3, 8] is reported as 9.6 nM. For the same molecule, the MIC [4, 6] was over 64 µg/mL and the MIC [5, 7] was 32 µg/mL (≈ 73.3 µM).
`CC(CCn1cc(COc2cccc3ccccc23)nn1)(C(=O)NO)S(C)(=O)=O` (centres unmarked) [Example 34, N-hydroxy-2-methyl-2-(methylsulfonyl)-4-{4-[(naphthalen-1-yloxy)methyl]-1H-1,2,3-triazol-1-yl}butanamide] was tested, and the “KP-3700 (MIC)” value [1] was over 64.0 µg/mL, the MIC [2] was over 64 µg/mL and the IC50 [3, 8] was 26.3 nM. The MIC [4, 6] was over 64 µg/mL and the MIC [5, 7] was over 64 µg/mL.
